From publication PMC9354705, “Characterization of TR‐107, a novel chemical activator of the human mitochondrial protease ClpP” (Pharmacology Research & Perspectives, 2022)
Where “and” joins values, the source holds several entries; their conditions need not be identical. Equal values may be shown once. Read-outs that look alike come from different tables or passages of the source.

Experiments:
[1] = system: MDA‐MB‐231 cells; test: Cell viability (total cell count, Hoechst stain) in MDA‐MB‐231 cells; assay type: cell-based, human; settings: for IC50: Homo sapiens, MDA-MB-231, 72 h
[2] = system: C3(1)‐Tag cells; test: Cell viability assay of C3Tag cells; assay type: cell-based, murine; settings: Mus musculus; 72 h, Hoechst stain, N = 2
[3] = target: purified recombinant human ClpP (Homo sapiens, UniProt Q16740); test: In vitro ClpP activity assay (casein‐FITC degradation); assay type: biochemical; settings: relative to DMSO, read-out: EC50 (nM) ClpP activation
Method: Measurement of in vitro activity of purified recombinant human ClpP was performed with a slight modification to the method previously described.[46] Briefly, ClpP activity was measured through the degradation of casein‐FITC (Sigma‐Aldrich, C0528) in the presence of indicated compounds. […] Enzyme and compounds were mixed and incubated in assay buffer for 30 min before adding casein‐FITC substrate. […] Linear slope of fluorescence signal was used to measure ClpP activity and normalized to DMSO control, expressed as RFU/h.

[4] = target: T1, recombinant human ClpP (Homo sapiens, UniProt Q16740); test: Surface plasmon resonance binding to ClpP; settings: steady state, one‐site Langmuir binding model, 25°C; read-out: Kd (SPR)
T1 construct: made in house
Method: For the surface plasmon resonance (SPR) experiments, recombinant human ClpP was purified as previously described.[46] SPR measurements were performed on a Biacore X100 instrument (Cytiva Life Sciences) at 25°C in buffer (25 mM sodium phosphate, pH 7.5, 200 mM KCl, 0.05% Tween‐20, and 0.004% DMSO). ClpP was immobilized onto flowcell two of a CM5 chip (Cytive Life Sciences) using the amine coupling wizard using Biacore X100 Control Software. A pulse of a mixture of NHS and EDC activated the CM5 chip surface. ClpP was diluted to 100 μg/ml in 10 mM sodium acetate, pH 4.5 immediately prior to use and injected over the activated surface for 180 s. The remaining activated sites were blocked with a pulse of ethanolamine. 12 000 RU of ClpP was captured using this procedure. Flowcell 1 was unmodified and served as a reference. For TR‐107 binding to ClpP, a concentration series of TR‐107 in DMSO was diluted into the buffer to achieve 0.004% final DMSO concentration in all samples. Three replicates were injected for each concentration. Data were blank subtracted and analysis was performed in Biacore X100 Evaluation Software (Cytiva Life Sciences). The steady‐state response was calculated 15 s before the end of injection with a window of 15 s. Data were fitted to a one‐site Langmuir binding model.

[5] = Protein binding to plasma proteins (equilibrium dialysis); assay type: in vitro ADME; settings: mouse plasma, read-out: serum‐free fraction
Method: Protein‐binding studies were performed by Eurofins Panlabs, Inc. This assay utilizes equilibrium dialysis in a microplate format, as previously described.[47] Briefly, this analysis is used to determine the bound and unbound fraction of the drug and calculate the percentage of the test compound binding to murine plasma proteins.

[6] = system: ClpP‐KO MDA‐MB‐231 and SUM159 cells; test: Cell growth in ClpP‐KO cells; assay type: cell-based, human; settings: concentrations as high as 1 μM, up to 72 h
Excerpt: sgRNA against human ClpP (Eurofins Genomics) was annealed and ligated into vector VDB783. This vector was transformed into DH5α cells and the presence of sgRNA was confirmed by colony PCR. Lentivirus was produced in HEK293T cells following transfection with plasmid and jetPRIME (PolyPlus) as previously described.[43] Clonal populations of SUM159 cells infected with dCas9‐KRAB lentivirus were clonally isolated to ensure dCas9‐KRAB expression. Isolated SUM159 cells were infected with ClpP sgRNA lentivirus followed by additional selection passage in growth media supplemented with […] puromycin.
Total cell counting assays were performed by seeding MDA‐MB‐231 cells (WT and ClpP‐KO; 4000 cells/well) or SUM159 (WT and ClpP‐KO; 1000 cells/well) in a 96‐well plate (Perkin Elmer, 6005050) and allowed to adhere overnight. The growth medium was then aspirated and replaced with 100 μl of growth medium supplemented with the drug at concentrations indicated in the figure or figure legends. Cells treated with vehicle control (0.1% DMSO, Sigma‐Aldrich D2650) were used as a negative control in all experiments, and cells were incubated with drug‐containing media for 24, 48, or 72 h as indicated in figure legends. […] The total cell number was then quantified using the Celigo Imaging Cytometer (Nexcelom).

[7] = system: MDA‐MB‐231 or SUM159 cells; test: Time‐course total cell count in MDA‐MB‐231 or SUM159 cells; assay type: cell-based, human; settings: up to 72 h, both cell lines, vs vehicle control
Method: Total cell counting assays were performed by seeding MDA‐MB‐231 cells (WT and ClpP‐KO; 4000 cells/well) or SUM159 (WT and ClpP‐KO; 1000 cells/well) in a 96‐well plate (Perkin Elmer, 6005050) and allowed to adhere overnight. The growth medium was then aspirated and replaced with 100 μl of growth medium supplemented with the drug at concentrations indicated in the figure or figure legends. Cells treated with vehicle control (0.1% DMSO, Sigma‐Aldrich D2650) were used as a negative control in all experiments, and cells were incubated with drug‐containing media for 24, 48, or 72 h as indicated in figure legends. Media was then aspirated and replaced with 100 μl Dulbecco's phosphate‐buffered saline (DPBS Gibco, 14190‐144) containing 1 μg/ml Hoechst stain (ThermoFischer Scientific, H3570) and allowed to incubate at 37°C for 30 min. The total cell number was then quantified using the Celigo Imaging Cytometer (Nexcelom).

[8] = system: MDA‐MB‐231 and SUM159 cells; test: Immunoblotting for mitochondrial proteins; assay type: cell-based, human
Method: Cell lysates were clarified and immunoblotted as described earlier.[45] Membranes were incubated with primary antibodies (Appendix S1) diluted 1:1000 in 1% fish gelatin (Sigma‐Aldrich, G7041)/TBST overnight at 4°C, removed, washed 3 × 5 min in TBST, and placed in their respective 2° antibodies (1:10 000 dilution in 5% milk/TBST) for 1 h. […] Acquired images were processed/quantified using Image Lab software (BioRad) or Image Studio Lite (LI‐COR).

[9] = 100 nM TR‐107, 150 nM TR‐57, or 10 μM ONC201

T1 sequence (Q16740 57-277): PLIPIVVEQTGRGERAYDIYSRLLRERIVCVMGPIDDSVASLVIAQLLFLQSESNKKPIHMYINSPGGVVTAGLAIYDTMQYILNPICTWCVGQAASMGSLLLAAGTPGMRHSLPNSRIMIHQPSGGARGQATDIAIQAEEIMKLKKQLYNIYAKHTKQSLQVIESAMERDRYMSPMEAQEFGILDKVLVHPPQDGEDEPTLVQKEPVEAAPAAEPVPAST
Chain of purified recombinant human ClpP (Q16740 57-277): as above

In the case of N#Cc1cccc(CN2CCc3ncn(Cc4ccc(Cl)cc4)c(=O)c3C2)c1 [TR‐107], the IC50 ([1]; WT cells, Hoechst stain, mean N = 3, read-out: IC50 (nM) MDA-MB-231) is reported as 23 nM, the IC50 ([1]; media containing galactose, read-out: IC50 (nM) Galactose) is reported as 9.8 nM and the IC50 ([1]; media containing glucose, read-out: IC50 (nM) Glucose) is reported as 19 nM. The “shift of growth inhibition dose–response (IC50) glucose to galactose” value ([1]; galactose instead of glucose, MDA‐MB‐231, 72 h) was ~ 2 fold, the IC50 [2] was 22 nM and the EC50 [3] was 140 nM. For the same compound, the Kd [4] was ~180 nM and 178 nM, the fraction unbound [5] was 0.1 and the “cell growth in ClpP‐KO cells” value [6] was “not inhibited”. For the same compound, the “concentrations inhibiting the increase in cell number” value [7] was over 10 nM, the “TUFM and TFAM protein levels by 24 h” value [8, 9] was “complete or near‐complete loss” and the “time at which TUFM and TFAM protein levels began to decline” value [8, 9] was ~ 6 h. The HSP60 levels ([8]; MDA‐MB‐231 cells, 100 nM) was “significantly reduced in a time‐dependent manner”.
